According to ChEMBL document CHEMBL1201862, “PubChem BioAssay data set” (2004):
The source made the active and inactive calls.

How the values were obtained:
[1] = target: T1, ORF 73 (Human herpesvirus 8, UniProt O40947); experiment: inhibitors of C-LANA binding to LBS DNA, dose response, biochemical, fluorescence polarization, cherry-picked samples (AID 504725); parameters: species or system Human gammaherpesvirus 8;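 further: fluorescence polarization of a labeled DNA duplex reporting LANA DNA binding; potency is for inhibitors that block LANA binding to the DNA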
T1 sequence (O40947 whole entry): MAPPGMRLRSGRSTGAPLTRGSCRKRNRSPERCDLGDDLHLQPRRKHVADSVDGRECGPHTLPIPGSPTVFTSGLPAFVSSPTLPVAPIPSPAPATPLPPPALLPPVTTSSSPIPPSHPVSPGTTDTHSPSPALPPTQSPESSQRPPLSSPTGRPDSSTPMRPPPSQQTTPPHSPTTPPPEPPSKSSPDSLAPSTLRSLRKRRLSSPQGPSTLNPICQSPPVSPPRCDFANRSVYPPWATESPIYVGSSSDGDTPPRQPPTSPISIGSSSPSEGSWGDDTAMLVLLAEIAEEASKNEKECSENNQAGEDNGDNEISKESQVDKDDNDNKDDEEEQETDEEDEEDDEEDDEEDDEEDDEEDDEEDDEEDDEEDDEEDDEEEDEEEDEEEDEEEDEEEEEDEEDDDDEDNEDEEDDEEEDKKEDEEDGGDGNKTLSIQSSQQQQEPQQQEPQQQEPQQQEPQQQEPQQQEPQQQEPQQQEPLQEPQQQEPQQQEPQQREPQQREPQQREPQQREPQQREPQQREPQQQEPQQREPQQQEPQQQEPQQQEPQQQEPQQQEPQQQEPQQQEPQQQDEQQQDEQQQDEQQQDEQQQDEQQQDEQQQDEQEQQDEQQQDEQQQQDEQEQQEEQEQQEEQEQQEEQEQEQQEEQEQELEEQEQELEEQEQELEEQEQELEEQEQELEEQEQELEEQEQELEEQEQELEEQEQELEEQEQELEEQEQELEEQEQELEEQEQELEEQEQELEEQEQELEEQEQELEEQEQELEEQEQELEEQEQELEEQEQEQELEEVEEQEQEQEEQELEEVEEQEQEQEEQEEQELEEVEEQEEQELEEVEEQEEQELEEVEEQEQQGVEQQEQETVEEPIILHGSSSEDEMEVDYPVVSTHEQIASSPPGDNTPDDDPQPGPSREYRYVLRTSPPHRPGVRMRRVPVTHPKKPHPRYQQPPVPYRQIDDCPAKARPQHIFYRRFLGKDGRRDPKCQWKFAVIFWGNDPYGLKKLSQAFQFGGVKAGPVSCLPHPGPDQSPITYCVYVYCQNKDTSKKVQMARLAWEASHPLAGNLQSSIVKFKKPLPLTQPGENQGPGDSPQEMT

[2] = target: Keap1/Nrf2 (Homo sapiens, UniProt Q14145); experiment: Keap1-Nrf2 protein-protein interaction inhibitors, dose response, biochemical, fluorescence polarization, cherry-picked samples (AID 588683)
[3] = target: T2, Corticotropin-releasing factor receptor 2/Corticotropin-releasing factor-binding protein (Homo sapiens, UniProt P24387+Q13324); experiment: activators of CRF receptor 2 with binding protein – uHTS hits, confirmation (AID 602473); type: functional; conditions: read-out: EC50_Mean
T2 sequence (Q13324 whole entry): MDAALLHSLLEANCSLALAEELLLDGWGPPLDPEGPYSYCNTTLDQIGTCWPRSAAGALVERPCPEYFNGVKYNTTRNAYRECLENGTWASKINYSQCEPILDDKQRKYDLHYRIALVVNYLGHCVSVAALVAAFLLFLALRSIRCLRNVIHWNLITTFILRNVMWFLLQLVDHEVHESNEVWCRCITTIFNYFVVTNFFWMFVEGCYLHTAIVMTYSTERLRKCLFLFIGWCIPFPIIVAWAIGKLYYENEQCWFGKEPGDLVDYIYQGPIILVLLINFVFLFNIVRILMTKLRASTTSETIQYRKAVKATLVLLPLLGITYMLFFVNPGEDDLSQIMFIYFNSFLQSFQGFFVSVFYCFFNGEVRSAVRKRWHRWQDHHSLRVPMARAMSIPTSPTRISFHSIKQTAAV
T2 sequence (P24387 whole entry): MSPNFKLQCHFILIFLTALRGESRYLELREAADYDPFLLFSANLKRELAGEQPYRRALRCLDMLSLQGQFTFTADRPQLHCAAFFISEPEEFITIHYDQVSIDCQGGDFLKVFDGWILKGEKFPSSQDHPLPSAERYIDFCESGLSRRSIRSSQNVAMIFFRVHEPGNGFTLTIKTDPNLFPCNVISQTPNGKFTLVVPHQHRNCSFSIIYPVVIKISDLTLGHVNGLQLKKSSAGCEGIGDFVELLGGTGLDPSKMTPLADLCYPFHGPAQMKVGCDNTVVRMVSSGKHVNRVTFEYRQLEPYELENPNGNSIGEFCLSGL

[4] = system: HEK293; experiment: cytotoxicity in HEK293T NF-kB-Luc cells, SAR follow-up, cytotoxicity control for NF-kB activator project, cell-based, resazurin fluorescence (AID 493251); type: functional; conditions: Homo sapiens
[5] = target: T3, Hexokinase-1 (Homo sapiens, UniProt P19367); experiment: SAR analysis of small molecule inhibitors of hexokinase domain containing I (HKDC1) in the hexokinase 1 selectivity assay. [Related pubchem assays (depositor defined):AID493160, AID493190]; type: functional
T3 sequence (P19367 whole entry): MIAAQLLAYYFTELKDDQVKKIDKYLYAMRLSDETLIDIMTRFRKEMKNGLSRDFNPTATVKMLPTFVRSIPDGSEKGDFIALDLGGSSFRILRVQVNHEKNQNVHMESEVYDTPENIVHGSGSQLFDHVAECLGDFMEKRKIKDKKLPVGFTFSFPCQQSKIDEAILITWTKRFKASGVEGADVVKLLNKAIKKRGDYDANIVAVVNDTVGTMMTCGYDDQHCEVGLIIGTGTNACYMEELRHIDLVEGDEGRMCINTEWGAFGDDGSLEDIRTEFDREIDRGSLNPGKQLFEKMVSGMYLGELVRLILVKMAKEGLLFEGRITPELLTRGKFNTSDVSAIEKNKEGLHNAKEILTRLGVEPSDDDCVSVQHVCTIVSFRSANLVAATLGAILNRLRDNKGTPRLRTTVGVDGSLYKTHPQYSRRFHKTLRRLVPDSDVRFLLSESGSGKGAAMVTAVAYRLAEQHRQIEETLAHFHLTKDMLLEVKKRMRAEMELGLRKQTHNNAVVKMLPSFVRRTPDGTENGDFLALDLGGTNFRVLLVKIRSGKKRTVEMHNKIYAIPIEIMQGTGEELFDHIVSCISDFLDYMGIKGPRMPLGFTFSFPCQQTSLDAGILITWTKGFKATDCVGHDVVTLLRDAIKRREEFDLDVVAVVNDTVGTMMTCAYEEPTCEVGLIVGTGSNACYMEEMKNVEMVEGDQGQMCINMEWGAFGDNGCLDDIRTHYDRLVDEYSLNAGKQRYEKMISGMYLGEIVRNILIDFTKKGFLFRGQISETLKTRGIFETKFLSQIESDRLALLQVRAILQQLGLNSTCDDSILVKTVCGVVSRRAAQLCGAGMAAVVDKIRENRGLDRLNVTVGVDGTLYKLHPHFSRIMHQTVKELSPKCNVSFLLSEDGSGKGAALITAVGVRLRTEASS

[6] = target: T4, Hexokinase HKDC1 (Homo sapiens, UniProt Q2TB90); experiment: SAR analysis of small molecule inhibitors of hexokinase domain containing I (HKDC1). [Related pubchem assays (depositor defined):AID493160, AID493190]; type: functional
T4 sequence (Q2TB90 whole entry): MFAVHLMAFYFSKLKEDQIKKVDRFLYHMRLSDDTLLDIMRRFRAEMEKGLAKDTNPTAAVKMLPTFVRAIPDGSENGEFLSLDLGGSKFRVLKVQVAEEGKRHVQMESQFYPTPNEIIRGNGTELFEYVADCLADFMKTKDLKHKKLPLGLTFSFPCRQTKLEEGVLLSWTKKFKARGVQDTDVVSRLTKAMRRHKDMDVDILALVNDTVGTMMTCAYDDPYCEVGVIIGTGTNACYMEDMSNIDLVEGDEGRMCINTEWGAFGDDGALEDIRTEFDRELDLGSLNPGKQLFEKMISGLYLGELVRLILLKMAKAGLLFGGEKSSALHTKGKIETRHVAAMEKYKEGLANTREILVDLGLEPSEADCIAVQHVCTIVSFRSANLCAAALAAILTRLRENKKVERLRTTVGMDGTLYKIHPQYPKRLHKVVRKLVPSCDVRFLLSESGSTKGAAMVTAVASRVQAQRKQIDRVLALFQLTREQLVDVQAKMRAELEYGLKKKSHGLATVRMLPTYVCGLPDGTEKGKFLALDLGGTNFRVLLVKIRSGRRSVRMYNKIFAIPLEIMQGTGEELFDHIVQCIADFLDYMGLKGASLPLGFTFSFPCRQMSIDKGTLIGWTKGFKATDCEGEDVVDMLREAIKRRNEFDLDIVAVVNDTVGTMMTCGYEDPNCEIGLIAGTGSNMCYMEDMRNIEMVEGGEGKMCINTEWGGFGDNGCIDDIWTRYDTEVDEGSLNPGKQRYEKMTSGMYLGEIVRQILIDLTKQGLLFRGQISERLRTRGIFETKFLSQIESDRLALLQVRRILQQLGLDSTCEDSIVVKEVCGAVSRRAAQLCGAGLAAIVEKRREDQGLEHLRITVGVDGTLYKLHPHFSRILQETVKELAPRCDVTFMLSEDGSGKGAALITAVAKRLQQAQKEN

Chain of Keap1/Nrf2 (Q16236 whole entry): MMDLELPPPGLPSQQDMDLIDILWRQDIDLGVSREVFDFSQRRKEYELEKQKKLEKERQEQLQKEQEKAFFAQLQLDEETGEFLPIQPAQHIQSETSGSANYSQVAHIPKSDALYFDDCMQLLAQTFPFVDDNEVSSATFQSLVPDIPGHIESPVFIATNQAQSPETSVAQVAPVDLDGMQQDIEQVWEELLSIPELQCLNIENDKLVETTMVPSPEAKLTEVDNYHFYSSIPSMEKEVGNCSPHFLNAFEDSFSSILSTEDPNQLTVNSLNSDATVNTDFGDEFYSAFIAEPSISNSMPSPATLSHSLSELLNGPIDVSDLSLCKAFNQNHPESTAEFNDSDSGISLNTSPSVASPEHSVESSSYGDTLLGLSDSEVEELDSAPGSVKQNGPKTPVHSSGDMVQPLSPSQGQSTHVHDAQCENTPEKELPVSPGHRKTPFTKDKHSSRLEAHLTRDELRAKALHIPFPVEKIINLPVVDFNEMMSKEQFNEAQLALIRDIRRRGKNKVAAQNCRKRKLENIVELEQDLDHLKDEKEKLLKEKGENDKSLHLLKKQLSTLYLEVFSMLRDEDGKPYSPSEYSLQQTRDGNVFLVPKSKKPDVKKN
Chain of Keap1/Nrf2 (Q14145 whole entry): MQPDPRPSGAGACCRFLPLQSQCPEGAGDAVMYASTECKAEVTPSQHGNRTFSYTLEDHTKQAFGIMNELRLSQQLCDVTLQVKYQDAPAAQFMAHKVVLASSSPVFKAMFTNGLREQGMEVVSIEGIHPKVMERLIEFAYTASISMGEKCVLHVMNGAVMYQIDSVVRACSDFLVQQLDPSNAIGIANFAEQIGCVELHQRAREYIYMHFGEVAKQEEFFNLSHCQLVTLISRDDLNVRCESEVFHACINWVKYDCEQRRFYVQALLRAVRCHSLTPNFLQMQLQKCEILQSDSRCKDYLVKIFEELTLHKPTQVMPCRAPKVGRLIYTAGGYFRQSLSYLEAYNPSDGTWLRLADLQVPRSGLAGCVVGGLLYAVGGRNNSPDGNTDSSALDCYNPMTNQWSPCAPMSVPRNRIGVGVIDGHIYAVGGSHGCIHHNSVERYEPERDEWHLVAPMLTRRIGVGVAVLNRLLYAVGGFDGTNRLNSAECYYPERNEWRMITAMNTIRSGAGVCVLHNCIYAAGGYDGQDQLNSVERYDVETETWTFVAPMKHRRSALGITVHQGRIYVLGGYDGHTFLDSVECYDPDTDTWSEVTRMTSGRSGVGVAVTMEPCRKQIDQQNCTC

Row | SMILES | AC50 [1] | AC50 [2] | IC50 [5] | IC50 [6] | other results
1 | CCNC(=O)CCc1nc(-c2ccccc2)no1 |  |  |  |  | IC50 [4]: > 80 µM (inactive)
2 | O=c1c2ccccc2nc(/C=C/c2ccc(O)cc2)n1Cc1ccccc1 |  |  | > 80 µM (inactive) | > 80 µM (inactive) | 
3 | Cc1cc2nnc(SCC(=O)Nc3cccc(S(=O)(=O)N4CCCCC4)c3)n2c2ccccc12 |  |  | > 80 µM (inactive) | > 80 µM (inactive) | 

The next lines start with results.

Row | AC50 [1] | AC50 [2] | IC50 [5] | IC50 [6] | SMILES | other results
4 | 8.04 µM (active) | 5.31 µM (active) |  |  | CCC1(c2ccccc2)NC(=O)N(CC(=O)Nc2ccc(OC)nc2)C1=O (stereo not given) | EC50 [3]: 18.6 µM (active)
5 | 13.3 µM (active) | 11.8 µM (active) |  |  | Cc1cc[n+](-c2[n-]c(=O)sc2/C=N/NC(=O)c2ccccc2)cc1C | 
